Measurements taken from US11702404B2, “GLP-1R modulating compounds” (priority 2019, dated 2023).
Like-named read-outs stand apart in the source and are kept apart here.

How the values were obtained:
[1] = Microsomal stability, human liver microsomes (predicted hepatic clearance); conditions: predicted from in vitro microsomal stability data
[2] = molecular target: GLP-1R (Homo sapiens, UniProt P43220); assay: GLP-1R activation: cAMP increase in CHO cells stably expressing GLP-1R; assay type: cell-based
[3] = cAMP increase, CHO cells stably expressing GLP-1R, 10 point dose response, 30 minutes incubation, read-out: EC50

Sequence of GLP-1R (P43220 24-463): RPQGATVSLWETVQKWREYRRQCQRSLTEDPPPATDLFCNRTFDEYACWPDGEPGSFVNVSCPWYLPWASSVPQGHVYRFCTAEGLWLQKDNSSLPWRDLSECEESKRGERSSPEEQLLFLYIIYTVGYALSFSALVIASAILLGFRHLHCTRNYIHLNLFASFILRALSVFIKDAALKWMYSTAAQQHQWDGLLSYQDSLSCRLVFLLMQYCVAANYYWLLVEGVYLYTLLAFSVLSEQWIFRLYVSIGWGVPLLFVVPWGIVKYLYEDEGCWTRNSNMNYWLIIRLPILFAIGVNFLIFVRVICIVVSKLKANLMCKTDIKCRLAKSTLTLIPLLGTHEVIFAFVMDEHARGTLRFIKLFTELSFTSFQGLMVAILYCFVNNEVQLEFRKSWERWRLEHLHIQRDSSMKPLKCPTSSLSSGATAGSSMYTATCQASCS

SMILES	Predicted Hepatic Clearance (Pred. Cl.) [1]	EC50 [2, 3]	EC50 ([2]; EC50 (nM))
N#CCC1(Cn2c(Cc3c(F)cc(-c4ccnc(OCc5ccc(C#N)cc5F)n4)cc3F)nc3ccc(C(=O)O)cc32)CC1 [Example 399, 2-(4-(2-((4-cyano-2-fluorobenzyl)oxy)pyrimidin-4-yl)-2,6-difluorobenzyl)-1-((1-(cyanomethyl)cyclopropyl)methyl)-1H-benzo[d]imidazole-6-carboxylic acid]	3.3 mL/min/kg	2.81 nM	–
COCCn1c(Cc2c(F)cc(-c3cccc(OCc4ccc(C#N)cc4F)n3)c(F)c2F)nc2ccc(C(=O)O)cc21 [Example 401, 2-(4-(6-((4-cyano-2-fluorobenzyl)oxy)pyridin-2-yl)-2,3,6-trifluorobenzyl)-1-(2-methoxyethyl)-1H-benzo[d]imidazole-6-carboxylic acid]	6.92 mL/min/kg	–	1.34 nM
N#Cc1ccc(COc2cccc(-c3ccc(Cc4nc5ccc(C(=O)O)cc5n4Cc4cnco4)c(F)c3)n2)c(F)c1 [Example 402, 2-(4-(6-((4-cyano-2-fluorobenzyl)oxy)pyridin-2-yl)-2-fluorobenzyl)-1-(oxazol-5-ylmethyl)-1H-benzo[d]imidazole-6-carboxylic acid]	12 mL/min/kg	2.11 nM	–
N#Cc1ccc(COc2nccc(-c3ccc(Cc4nc5ccc(C(=O)O)cc5n4C[C@@H]4CCO4)cc3F)n2)c(F)c1 [Example 403, (S)-2-(4-(2-((4-cyano-2-fluorobenzyl)oxy)pyrimidin-4-yl)-3-fluorobenzyl)-1-(oxetan-2-ylmethyl)-1H-benzo[d]imidazole-6-carboxylic acid]	4.95 mL/min/kg	0.89 nM	–
CCn1cnnc1Cn1c(Cc2ccc(-c3cccc(OCc4ccc(C#N)cc4F)n3)cc2F)nc2ccc(C(=O)O)cc21 [Example 404, 2-(4-(6-((4-cyano-2-fluorobenzyl)oxy)pyridin-2-yl)-2-fluorobenzyl)-1-((4-ethyl-4H-1,2,4-triazol-3-yl)methyl)-1H-benzo[d]imidazole-6-carboxylic acid]	<1.83 mL/min/kg	1.71 nM	–
COCCn1c(Cc2c(F)cc(-c3ccnc(OCc4ccc(C#N)cc4F)n3)c(F)c2F)nc2ccc(C(=O)O)cc21 [Example 405, 2-(4-(2-((4-cyano-2-fluorobenzyl)oxy)pyrimidin-4-yl)-2,3,6-trifluorobenzyl)-1-(2-methoxyethyl)-1H-benzo[d]imidazole-6-carboxylic acid]	5.5 mL/min/kg	1.71 nM	–
N#Cc1ccc(COc2cccc(-c3ccc(Cc4nc5ccc(C(=O)O)cc5n4Cc4cocn4)c(F)c3)n2)c(F)c1 [Example 407, 2-(4-(6-((4-cyano-2-fluorobenzyl)oxy)pyridin-2-yl)-2-fluorobenzyl)-1-(oxazol-4-ylmethyl)-1H-benzo[d]imidazole-6-carboxylic acid]	3.75 mL/min/kg	4.69 nM	–
COCCn1c(Cc2c(F)cc(-c3cccnc3OCc3cc(Cl)ccc3F)cc2F)nc2ccc(C(=O)O)cc21 [Example 408, 2-(4-(2-((5-chloro-2-fluorobenzyl)oxy)pyridin-3-yl)-2,6-difluorobenzyl)-1-(2-methoxyethyl)-1H-benzo[d]imidazole-6-carboxylic acid]	10.1 mL/min/kg	≥ 1000 nM	–
COCCn1c(Cc2ccc(-c3cccc(OCc4ccc(C#N)cc4F)n3)cc2CF)nc2ccc(C(=O)O)cc21 [Example 410, 2-(4-(6-((4-cyano-2-fluorobenzyl)oxy)pyridin-2-yl)-2-(fluoromethyl)benzyl)-1-(2-methoxyethyl)-1H-benzo[d]imidazole-carboxylic acid]	14.8 mL/min/kg	20.8 nM	–
COCCn1c(Cc2ccc(-c3cccc(OCc4ccc(C#N)cc4F)n3)cc2COC)nc2ccc(C(=O)O)cc21 [Example 411, 2-(4-(6-((4-cyano-2-fluorobenzyl)oxy)pyridin-2-yl)-2-(methoxymethyl)benzyl)-1-(2-methoxyethyl)-1H-benzo[d]imidazole-6-carboxylic acid]	9.33 mL/min/kg	–	140 nM
COCCn1c(Cc2ccc(-c3cccc(OCc4ccc(C#N)cc4F)n3)cc2C#CC(C)(C)O)nc2ccc(C(=O)O)cc21 [Example 419, 2-(4-(6-((4-cyano-2-fluorobenzyl)oxy)pyridin-2-yl)-2-(3-hydroxy-3-methylbut-1-yn-1-yl)benzyl)-1-(2-methoxyethyl)-1H-benzo[d]imidazole-6-carboxylic acid]	7.33 mL/min/kg	20.7 nM	–
N#Cc1ccc(COc2cccc(-c3ccn(Cc4nc5ccc(C(=O)O)cc5n4CC4(n5ccnn5)CC4)c(=O)c3)n2)c(F)c1 [Example 421, 1-((1-(1H-1,2,3-triazol-1-yl)cyclopropyl)methyl)-2-((6-((4-cyano-2-fluorobenzyl)oxy)-2′-oxo-[2,4′-bipyridin]-1′(2′H)-yl)methyl)-1H-benzo[d]imidazole-6-carboxylic acid]	<1.83 mL/min/kg	327 nM	–

Further lines, with some results ahead:

Predicted Hepatic Clearance (Pred. Cl.) [1]	EC50 [2, 3]	SMILES	EC50 ([2]; EC50 (nM))
10.2 mL/min/kg	0.1 nM	COc1cc(C#N)ccc1COc1nccc(-c2cc(F)c(Cc3nc4c(F)cc(C(=O)O)cc4n3C[C@@H]3CCO3)cc2F)n1 [Example 398, (S)-2-(4-(2-((4-cyano-2-methoxybenzyl)oxy)pyrimidin-4-yl)-2,5-difluorobenzyl)-4-fluoro-1-(oxetan-2-ylmethyl)-1H-benzo[d]imidazole-6-carboxylic acid]	–
<1.83 mL/min/kg	0.47 nM	N#CCC1(Cn2c(Cc3cc(F)c(-c4ccnc(OCc5ccc(C#N)cc5F)n4)cc3F)nc3ccc(C(=O)O)nc32)CC1 [Example 400, 2-(4-(2-((4-cyano-2-fluorobenzyl)oxy)pyrimidin-4-yl)-2,5-difluorobenzyl)-3-((1-(cyanomethyl)cyclopropyl)methyl)-3H-imidazo[4,5-b]pyridine-5-carboxylic acid]	–
3.83 mL/min/kg	0.18 nM	N#Cc1ccc(COc2nccc(-c3ccc(Cc4nc5c(F)cc(C(=O)O)cc5n4C[C@@H]4CCO4)c(F)c3)n2)c(F)c1 [Example 406, (S)-2-(4-(2-((4-cyano-2-fluorobenzyl)oxy)pyrimidin-4-yl)-2-fluorobenzyl)-4-fluoro-1-(oxetan-2-ylmethyl)-1H-benzo[d]imidazole-6-carboxylic acid]	–
<1.83 mL/min/kg	0.37 nM	COc1cc(C#N)ccc1COc1cccc(-c2cc(F)c(Cc3nc4ccc(C(=O)O)cc4n3CC3(CF)CC3)cc2F)n1 [Example 409, 2-(4-(6-((4-cyano-2-methoxybenzyl)oxy)pyridin-2-yl)-2,5-difluorobenzyl)-1-((1-(fluoromethyl)cyclopropyl)methyl)-1H-benzo[d]imidazole-6-carboxylic acid]	–
<1.83 mL/min/kg	0.33 nM	N#Cc1ccc(COc2nccc(-c3cc(F)c(Cc4nc5c(F)cc(C(=O)O)cc5n4CC4(CF)CC4)cc3F)n2)c(F)c1 [Example 412, 2-(4-(2-((4-cyano-2-fluorobenzyl)oxy)pyrimidin-4-yl)-2,5-difluorobenzyl)-4-fluoro-1-((1-(fluoromethyl)cyclopropyl)methyl)-1H-benzo[d]imidazole-6-carboxylic acid]	–
<1.83 mL/min/kg	0.07 nM	O=C(O)c1ccc2nc(Cc3cc(F)c(-c4ccnc(OCc5ccc(Cl)cc5F)n4)cc3F)n(C[C@@H]3CCO3)c2c1 [Example 413, (S)-2-(4-(2-((4-chloro-2-fluorobenzyl)oxy)pyrimidin-4-yl)-2,5-difluorobenzyl)-1-(oxetan-2-ylmethyl)-1H-benzo[d]imidazole-6-carboxylic acid]	–
12 mL/min/kg	0.44 nM	COc1cc(Cl)ccc1COc1nccc(-c2cc(F)c(Cc3nc4ccc(C(=O)O)cc4n3CC3(CF)CC3)cc2F)n1 [Example 414, 2-(4-(2-((4-chloro-2-methoxybenzyl)oxy)pyrimidin-4-yl)-2,5-difluorobenzyl)-1-((1-(fluoromethyl)cyclopropyl)methyl)-1H-benzo[d]imidazole-6-carboxylic acid]	–
4.33 mL/min/kg	0.15 nM	N#Cc1ccc(COc2nccc(-c3cc(F)c(Cc4nc5ccc(C(=O)O)cc5n4C[C@@H]4CCO4)cc3F)n2)c(F)c1 [Example 415, (S)-2-(4-(2-((4-cyano-2-fluorobenzyl)oxy)pyrimidin-4-yl)-2,5-difluorobenzyl)-1-(oxetan-2-ylmethyl)-1H-benzo[d]imidazole-6-carboxylic acid]	–
4.17 mL/min/kg	0.09 nM	N#CCC1(Cn2c(Cc3cc(F)c(-c4cccc(OCc5ccc(Cl)cc5F)n4)cc3F)nc3ccc(C(=O)O)cc32)CC1 [Example 416, 2-(4-(6-((4-chloro-2-fluorobenzyl)oxy)pyridin-2-yl)-2,5-difluorobenzyl)-1-((1-(cyanomethyl)cyclopropyl)methyl)-1H-benzo[d]imidazole-6-carboxylic acid]	–
12.7 mL/min/kg	0.1 nM	COc1cc(C#N)ccc1COc1nccc(-c2cc(F)c(Cc3nc4ccc(C(=O)O)cc4n3CC3(CC#N)CC3)cc2F)n1 [Example 417, 2-(4-(2-((4-cyano-2-methoxybenzyl)oxy)pyrimidin-4-yl)-2,5-difluorobenzyl)-1-((1-(cyanomethyl)cyclopropyl)methyl)-1H-benzo[d]imidazole-6-carboxylic acid]	–
3.5 mL/min/kg	0.05 nM	N#Cc1ccc(COc2nccc(-c3cc(F)c(Cc4nc5c(F)cc(C(=O)O)cc5n4C[C@@H]4CCO4)cc3F)n2)c(F)c1 [Example 420, (S)-2-(4-(2-((4-cyano-2-fluorobenzyl)oxy)pyrimidin-4-yl)-2,5-difluorobenzyl)-4-fluoro-1-(oxetan-2-ylmethyl)-1H-benzo[d]imidazole-6-carboxylic acid]	–
